Entries after “also recorded” stand apart in the source; their conditions may differ. Where two headings read alike, the source gives them in different places.
Assays:
A498 = assay: NCI IVCLSP growth inhibition (SRB), A498; format: cell-based, human; details: renal cancer A498 cell
Procedure: (§1) FIG. 1 presents nine compounds that were tested using the National Cancer Institute (NCI) 60 human tumor cell lines. The cells lines, which represent leukemia, melanoma, and cancers of the lung, colon, brain, ovary, breast, prostate, and kidney, are listed in Table 1.
Compounds 1-9 were tested according to the NCI Developmental Therapeutics Program (DTP) In Vitro Cell Line Screening Project (IVCLSP). […] Methodology for testing under the IVCLSP is as follows: The human tumor cell lines of the cancer screening panel are grown in RPMI 1640 medium containing 5% fetal bovine serum and 2 mM L-glutamine. […]
Following drug addition, the plates are incubated for an additional 48 h at 37° C., 5% CO2, 95% air, and 100% relative humidity. […] Bound stain is subsequently solubilized with 10 mM trizma base, and the absorbance is read on an automated plate reader at a wavelength of 515 nm. […] Using the seven absorbance measurements [time zero, (Tz), control growth, (C), and test growth in the presence of drug at the five concentration levels (Ti)], the percentage growth is calculated at each of the drug concentrations levels. Percentage growth inhibition is calculated as: [(Ti−Tz)/(C−Tz)]×100 for concentrations for which Ti>/=Tz [(Ti−Tz)/Tz]×100 for concentrations for which Ti<Tz.
Three dose response parameters are calculated for each experimental agent. […]

[1] = test system: NCI 60 human tumor cell lines; assay: NCI IVCLSP growth inhibition, whole panel (text summaries); format: cell-based; details: NCI 60 tumor panel
Procedure: as §1
Compounds 1-9 were tested according to the NCI Developmental Therapeutics Program (DTP) In Vitro Cell Line Screening Project (IVCLSP). […] Methodology for testing under the IVCLSP is as follows: The human tumor cell lines of the cancer screening panel are grown in RPMI 1640 medium containing 5% fetal bovine serum and 2 mM L-glutamine. For a typical screening experiment, cells are inoculated into 96 well microtiter plates in 100 μL at plating densities ranging from 5,000 to 40,000 cells/well depending on the doubling time of individual cell lines. After cell inoculation, the microtiter plates are incubated at 37° C., 5% CO2, 95% air and 100% relative humidity for 24 h prior to addition of experimental drugs.
After 24 h, two plates of each cell line are fixed in situ with TCA, to represent a measurement of the cell population for each cell line at the time of drug addition (Tz). Experimental drugs are solubilized in dimethyl sulfoxide at 400-fold the desired final maximum test concentration and stored frozen prior to use. At the time of drug addition, an aliquot of frozen concentrate is thawed and diluted to twice the desired final maximum test concentration with complete medium containing 50 μg/ml gentamicin. Additional four, 10-fold or ½ log serial dilutions are made to provide a total of five drug concentrations plus control. Aliquots of 100 μl of these different drug dilutions are added to the appropriate microtiter wells already containing 100 μl of medium, resulting in the required final drug concentrations.
Following drug addition, the plates are incubated for an additional 48 h at 37° C., 5% CO2, 95% air, and 100% relative humidity. For adherent cells, the assay is terminated by the addition of cold TCA. Cells are fixed in situ by the gentle addition of 50 μl of cold 50% (w/v) TCA (final concentration, 10% TCA) and incubated for 60 minutes at 4° C. The supernatant is discarded, and the plates are washed five times with tap water and air dried. Sulforhodamine B (SRB) solution (100 μl) at 0.4% (w/v) in 1% acetic acid is added to each well, and plates are incubated for 10 minutes at room temperature. After staining, unbound dye is removed by washing five times with 1% acetic acid and the plates are air dried. Bound stain is subsequently solubilized with 10 mM trizma base, and the absorbance is read on an automated plate reader at a wavelength of 515 nm. For suspension cells, the methodology is the same except that the assay is terminated by fixing settled cells at the bottom of the wells by gently adding 50 μl of 80% TCA (final concentration, 16% TCA). Using the seven absorbance measurements [time zero, (Tz), control growth, (C), and test growth in the presence of drug at the five concentration levels (Ti)], the percentage growth is calculated at each of the drug concentrations levels. Percentage growth inhibition is calculated as: [(Ti−Tz)/(C−Tz)]×100 for concentrations for which Ti>/=Tz [(Ti−Tz)/Tz]×100 for concentrations for which Ti<Tz.
Three dose response parameters are calculated for each experimental agent. […] The drug concentration resulting in total growth inhibition (TGI) is calculated from Ti=Tz. […]

[2] = test system: T24 human bladder carcinoma cells; assay: Cytotoxicity, T24 cells; format: cell-based; details: mean ± SEM for 3 experiments
P-glycoprotein = biological target: T1, P-glycoprotein (Homo sapiens, UniProt P08183); assay: P-glycoprotein antagonism: sensitivity of NCI/ADR cells to vinblastine; format: cell-based; details: for effect on P-glycoprotein-mediated resistance (in words): absence or presence of 50 nM vinblastine
T1 construct: NCI/ADR cells that overexpress P-glycoprotein; endogenous in cells; host or cells: NCI/ADR cells
T1 sequence (P08183 whole entry): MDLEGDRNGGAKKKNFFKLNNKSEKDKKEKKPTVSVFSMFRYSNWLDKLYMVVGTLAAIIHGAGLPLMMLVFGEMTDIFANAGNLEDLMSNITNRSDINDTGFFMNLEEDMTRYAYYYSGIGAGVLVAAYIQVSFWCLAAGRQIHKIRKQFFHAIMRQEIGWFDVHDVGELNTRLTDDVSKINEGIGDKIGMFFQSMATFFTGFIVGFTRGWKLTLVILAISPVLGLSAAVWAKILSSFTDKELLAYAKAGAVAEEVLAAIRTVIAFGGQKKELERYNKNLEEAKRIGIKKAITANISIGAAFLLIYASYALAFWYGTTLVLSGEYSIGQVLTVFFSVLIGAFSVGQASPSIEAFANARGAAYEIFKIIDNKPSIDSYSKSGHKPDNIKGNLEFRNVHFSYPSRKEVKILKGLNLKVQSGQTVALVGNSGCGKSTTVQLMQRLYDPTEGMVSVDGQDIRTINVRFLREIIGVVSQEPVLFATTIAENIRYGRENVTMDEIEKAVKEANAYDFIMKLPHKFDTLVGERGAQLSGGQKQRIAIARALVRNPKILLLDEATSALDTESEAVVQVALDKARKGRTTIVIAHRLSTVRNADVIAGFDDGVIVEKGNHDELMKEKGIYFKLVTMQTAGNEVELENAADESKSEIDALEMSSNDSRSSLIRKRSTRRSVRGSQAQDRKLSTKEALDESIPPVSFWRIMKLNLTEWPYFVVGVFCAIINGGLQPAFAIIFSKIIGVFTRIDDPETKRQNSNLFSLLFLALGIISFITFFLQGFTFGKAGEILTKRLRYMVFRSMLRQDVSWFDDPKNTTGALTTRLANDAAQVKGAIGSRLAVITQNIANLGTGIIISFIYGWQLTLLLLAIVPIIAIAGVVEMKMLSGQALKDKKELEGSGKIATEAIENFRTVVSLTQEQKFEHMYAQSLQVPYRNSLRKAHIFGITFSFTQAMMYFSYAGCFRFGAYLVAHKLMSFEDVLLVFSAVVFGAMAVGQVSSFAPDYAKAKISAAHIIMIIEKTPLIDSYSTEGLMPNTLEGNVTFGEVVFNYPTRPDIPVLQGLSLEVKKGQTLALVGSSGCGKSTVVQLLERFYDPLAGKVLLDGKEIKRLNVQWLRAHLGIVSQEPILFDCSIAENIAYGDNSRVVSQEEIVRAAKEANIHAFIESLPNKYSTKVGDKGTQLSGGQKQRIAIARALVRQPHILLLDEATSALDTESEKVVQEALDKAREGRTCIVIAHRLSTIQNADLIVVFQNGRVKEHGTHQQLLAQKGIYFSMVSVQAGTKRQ
From the text: To determine if this is due to inhibition of drug transport activity by these proteins, the effects of these compounds on P-glycoprotein were further characterized. The effects of the compounds on the sensitivity of NCI/ADR cells to vinblastine and of MCF-7/VP cells to vincristine were examined to evaluate antagonism of P-glycoprotein and MRP1, respectively. FIGS. 4a-b present graphs of antagonism score versus concentration for P-glycoprotein and MRP1, respectively.
The Pgp antagonism score is calculated as the percentage survival of cells in the absence of vinblastine/percentage survival in the presence of vinblastine. […] The MRP1 antagonism score is calculated as the percentage survival of cells in the absence of vincristine/percentage survival in the presence of vincristine. […] Concentrations of Compounds 1-5 above their IC50 toward MCF-7 cells are not indicated. Data for one of three similar experiments is shown.

MCF-7 cells = assay: Cytotoxicity, drug-sensitive MCF-7 cells
From the text: (§3) These cell lines are resistant to anticancer drugs due to overexpression of the transport proteins P-glycoprotein or MRP1.

MCF-7/VP cells = assay: Cytotoxicity, MCF-7/VP cells that overexpress MRP1; details: for Resistance (MCF-7/VP relative to MCF-7): MRP1
From the text: as §3

NCI/ADR cells = assay: Cytotoxicity, NCI/ADR cells that overexpress P-glycoprotein; details: for Resistance (NCI/ADR relative to MCF-7): P-glycoprotein
From the text: as §3

[3] = test system: T24, MCF-7, NCI/ADR, MCF-7/VP; assay: Cytotoxicity, panel of human tumor cell lines of Table 3 (text summaries)
From the text: as §3

[4] = test system: A-10 rat smooth muscle cells; assay: Microtubule structure, indirect immunofluorescence, A-10 cells; format: cell-based; details: 24 hours; 625 nM TAXOL, 167 nM vinblastine, 900 nM Compound 1
Procedure: Because of the morphological effects of Compound 1 on cultured cells and the NCI COMPARE analysis results described above, the effects of vinblastine, TAXOL (paclitaxel), and Compound 1 on microtubule structure were examined. For these studies, A-10 rat smooth muscle cells were used since they grow as flat monolayers that are amenable to imaging. The A-10 cells were treated for 24 hours with EtOH (control), 625 nM TAXOL (paclitaxel), 167 nM vinblastine, and 900 nM of Compound 1. Microtubules were then visualized by indirect immunofluoresence staining with B-tubulin antibodies. FIGS. 2a-d present representative fields for the control, TAXOL (paclitaxel), vinblastine, and Compound 1 (“149”), respectively. None of these compounds affected the morphology of stress fibers composed of microfilaments.

[5] = test system: HL-60 human promyelocytic leukemia cells; assay: Flow cytometric cell cycle phase distribution; format: cell-based; details: 24 hours treatment; for increase of the percentage of cells in the G2/M phases: HL-60; for cell cycle distribution, G2/M / cell cycle distribution, G9/G1 / cell cycle distribution, S: percentage of HL-60 cells
Procedure: Flow cytometric analyses were used to assess the effects of Compound 1 and various antimicrotubule drugs on the cell cycle phase distributions of HL-60 human promyelocytic leukemia cells. The percentage of cells in the G2/M phases were increased approximately 2-fold by treatment of the cells for 24 hours with either TAXOL (paclitaxel), vinblastine, colchicine, or Compound 1.

p53 = assay: Western blot, p53 expression in MCF-7 cells; format: cell-based, human; details: 24 hours, various concentrations
Procedure: (§2) To further characterize the cell cycle effects of Compound 1 on human tumor cells, MCF-7 cells were treated for 24 hours with various concentrations of Compound 1, vinblastine, or TAXOL (paclitaxel). Cells were then harvested, lysed, and analyzed for levels of expression of p53 and WAF1 by Western Blot analyses. […] Compound 1 is identified as “149” in these figures. […] None of these treatments affected the expression of bcl-2 or P-tubulin in the MCF-7 cells.

WAF1 = assay: Western blot, WAF1 expression in MCF-7 cells; format: cell-based, human; details: 24 hours, various concentrations
Procedure: as §2

[6] = read-out: Cytotoxicity IC50, MCF-7, mean ± SEM for 3 experiments
[7] = read-out: Cytotoxicity IC50, MCF-7/VP, mean ± SEM for 3 experiments
[8] = read-out: Cytotoxicity IC50, NCI/ADR, mean ± SEM for 3 experiments
[9] = Homo sapiens, MCF7, read-out: drug sensitivity (IC50), MCF-7
[10] = Homo sapiens, MCF7-VP, read-out: drug sensitivity (IC50), MCF-7/VP
[11] = Homo sapiens, NCI/ADR-RES, read-out: drug sensitivity (IC50), NCI/ADR

Row | SMILES | GI50 values, level across the tumor cell lines (in words) [1] | IC50 [2] | effect on P-glycoprotein-mediated resistance (in words) (P-glycoprotein) | IC50 (MCF-7 cells; [6]) | IC50 (MCF-7/VP cells; [7]) | IC50 (NCI/ADR cells; [8]) | effect on microtubule structure (in words) [4] | increase of the percentage of cells in the G2/M phases [5] | cell cycle distribution, G2/M [5] | cell cycle distribution, G9/G1 [5] | cell cycle distribution, S [5] | level of expression of p53 (in words) (p53) | level of expression of WAF1 (in words) (WAF1) | IC50 (MCF-7 cells; [9]) | IC50 (MCF-7/VP cells; [10]) | Resistance (MCF-7/VP relative to MCF-7) (MCF-7/VP cells) | IC50 (NCI/ADR cells; [11]) | Resistance (NCI/ADR relative to MCF-7) (NCI/ADR cells) | also measured
1 | COc1cccc(CCc2cn(Cc3ccccc3)c3nc(N)nc(C)c23)c1 [Compound 3] | micromolar range for 8 of the 56 tumor cell lines | 25 ± 2.9 µM | dose-dependent sensitization | 8 ± 3.5 µM | 22 ± 4.2 µM | 5.7 ± 0.7 µM |  |  |  |  |  |  |  |  |  |  |  |  | GI50 level (in words) (A498): two digit nanomolar level; change of cytotoxic potency by substitution (in words) (NCI/ADR cells; NCI/ADR, relative to unsubstituted Compound 5): enhanced the potency
2 | COc1ccccc1CCc1cn(Cc2ccccc2)c2nc(N)nc(C)c12 [Compound 4] | micromolar to millimolar range | 2.5 ± 0.3 µM | dose-dependent sensitization | 2.3 ± 0.6 µM | 2.6 ± 0.1 µM | 2.7 ± 0.4 µM |  |  |  |  |  |  |  |  |  |  |  |  | more potent than the others in reversing P-glycoprotein-mediated resistance (P-glycoprotein; 50 nM vinblastine): approximately 10 fold; effect on P-glycoprotein-mediated resistance (in words) (P-glycoprotein; listed as 2-OMe analog): effective at reversing P-glycoprotein mediated resistance; cytotoxic potency, better than the 3- or 4-OMe [3]: about 10 times; cytotoxic potency, better than the unsubstituted phenyl analog Compound 5 [3]: ~5 times; effect of P-glycoprotein / MRP1 overexpression on cell sensitivity (in words) [3]: eliminated any resistance due to overexpression of either P-glycoprotein or MRP1; less potent as an antimitotic agent than the 3,4,5-triOMe analog [3]: about 10 times; cytotoxic potency (in words) ([3]; all tested cell lines): substantially increased the potency toward all of the tested cell lines
3 | Cc1nc(N)nc2c1c(CCc1ccccc1)cn2Cc1ccccc1 [Compound 5] | millimolar or less range for 52 of the tumor cell lines; also recorded: micromolar GI50 values for three of the tumor cell lines | 12.7 ± 2.3 µM | dose-dependent sensitization | 10.7 ± 4.7 µM | 118 ± 6 µM | 18.2 ± 7.4 µM |  |  |  |  |  |  |  |  |  |  |  |  | 
4 | CC(=O)O[C@H]1C(=O)[C@@]2(C)[C@H]([C@H](OC(=O)c3ccccc3)[C@]3(O)C[C@H](OC(=O)[C@H](O)[C@@H](NC(=O)c4ccccc4)c4ccccc4)C(C)=C1C3(C)C)[C@]1(OC(C)=O)CO[C@@H]1C[C@@H]2O [TAXOL (paclitaxel), paclitaxel] |  |  |  |  |  |  | promoted increased staining of microtubule clusters | approximately 2 fold | 10.5 ± 0.1 | 67.3 ± 0.4 | 22.2 ± 0.4 | marked increases | marked increases | 0.0025 ± 0.0006 µM | 0.0028 ± 0.0006 µM | 1.1 | 2.7 ± 0.5 µM | 1080 | 
5 | CC[C@]1(O)C[C@@H]2CN(CCc3c([nH]c4ccccc34)[C@@](C(=O)OC)(c3cc4c(cc3OC)N(C)[C@H]3[C@@](O)(C(=O)OC)[C@H](OC(C)=O)[C@]5(CC)C=CCN6CC[C@]43[C@@H]65)C2)C1 [Vinblastine, vinblastine] |  |  |  |  |  |  | caused marked depletion of cellular microtubules | approximately 2 fold | 10.1 ± 0.3 | 83.3 ± 1.3 | 6.6 ± 1.6 | marked increases | marked increases | 0.0028 ± 0.0005 µM | 0.003 ± 0.0006 µM | 1.1 | > 0.375 µM | >134 | 
